From patent US8791139B2, “Anthranilic diamide derivatives” (Bayer Cropscience AG, priority 2010, dated 2014)
Where two headings read alike, the source gives them in different places. One block for each compound: values may come before it.

Assays:
[1] = system: caterpillars of the armyworm (Spodoptera frugiperda); assay: Spodoptera frugiperda test (SPODFR spray treatment); format: in vivo; details: 168 h
Experimental: After 7 days, the effect in % is determined.

[2] = system: Lucilia cuprina larvae; assay: Lucilia cuprina test (LUCICU); format: in vivo; details: application rate 100 ppm, after 48 h
From the text: (§1) Solvent: dimethyl sulphoxide
Vessels containing horse meat treated with the active compound preparation of the desired concentration are populated with about 20 Lucilia cuprina larvae.

[3] = logP by HPLC on reversed-phase columns (C18), EEC Directive 79/831 Annex V.A8; format: physicochemical
Experimental: The logP values reported in the table above and in the Preparation Examples were determined in accordance with EEC Directive 79/831 Annex V.A8 by HPLC (High Performance Liquid Chromatography) on reversed-phase columns (C18), with the following methods:
The LC-MS determination in the acidic range is carried out at pH 2.7 using the mobile phases 0.1% aqueous formic acid and acetonitrile (contains 0.1% formic acid), linear gradient from 10% acetonitrile to 95% acetonitrile
Calibration was carried out using unbranched alkan-2-ones (having from 3 to 16 carbon atoms) with known logP values (the logP values were determined by the retention times using linear interpolation between two successive alkanones).

[4] = system: larvae of the mustard beetle (Phaedon cochleariae); assay: Phaedon test (PHAECO spray treatment); details: 168 h; for pest or weed control at 100 g/ha / pest or weed control at 500 g/ha: read-out: activity (beetle larvae killed)
[5] = system: green peach aphid (Myzus persicae); assay: Myzus test (MYZUPE spray treatment); format: in vivo; details: application rate 100 g/ha, after 6 days, Chinese cabbage leaf discs
[6] = system: Boophilus microplus; assay: Boophilus microplus test (BOOPMI injection); format: in vivo; details: application rate 20 μg/animal, injection into abdomen, after 7 days
Experimental: as §1
The active compound solution is injected into the abdomen (Boophilus microplus), and the animals are transferred into dishes and stored in a climate-controlled room.
The activity is assessed by […] of fertile eggs. 100% means that none of the ticks has laid any fertile eggs.

[7] = read-out: activity (caterpillars killed)

Structure (SMILES): Cc1cc(C#N)cc(C(N)=O)c1NC(=O)c1cc(C#Cc2ccc(OC(F)(F)F)cc2)nn1-c1ncccc1Cl [Example 12]
pest or weed control at 100 g/ha [1, 7]: 100% | efficacy (kill of larvae) [2]: 90% | chromatographic logP ([3]; pH 2.7, log P): 3.58

Structure (SMILES): Cc1cc(C#N)cc(C(=O)NC(C)C)c1NC(=O)c1cc(Oc2ccc(C(F)(F)F)cn2)nn1-c1ncccc1Cl [Example 76]
pest or weed control at 100 g/ha [1, 7]: 100% | chromatographic logP ([3]; pH 2.7, log P): 3.4 | pest or weed control at 100 g/ha [4]: 100%

Structure (SMILES): CNC(=O)c1cc(C#N)cc(C)c1NC(=O)c1cc(C(=O)Cn2nnc(C(F)(F)F)n2)nn1-c1ncccc1Cl [Example 15]
activity (aphids killed) [5]: 90% | pest or weed control at 20 g/ha [1, 7]: 100% | efficacy (no fertile eggs laid) [6]: 100% | efficacy (kill of larvae) [2]: 100% | chromatographic logP ([3]; pH 2.7, log P): 2.89 | pest or weed control at 100 g/ha [4]: 100%

Structure (SMILES): CNC(=O)c1cc(C#N)cc(C)c1NC(=O)c1cc(Nc2cc(C(F)(F)F)c(C(F)(F)F)cn2)nn1-c1ncccc1Cl [Example 71]
pest or weed control at 100 g/ha [1, 7]: 100% | chromatographic logP ([3]; pH 2.7, log P): 3.5 | pest or weed control at 100 g/ha [4]: 100%

Structure (SMILES): Cc1cc(C#N)cc(C(=O)NC(C)C)c1NC(=O)c1cc(C(=O)c2nc(C(F)(F)F)cs2)nn1-c1ncccc1Cl [Example 21]
activity (aphids killed) [5]: 90% | pest or weed control at 100 g/ha [1, 7]: 100% | efficacy (kill of larvae) [2]: 100% | chromatographic logP ([3]; pH 2.7, log P): 3.24 | pest or weed control at 100 g/ha [4]: 100%

Structure (SMILES): CNC(=O)c1cc(C#N)cc(C)c1NC(=O)c1cc(/C=C/n2nnc(C(F)(F)F)n2)nn1-c1ncccc1Cl [Example 64]
pest or weed control at 100 g/ha [1, 7]: 100% | chromatographic logP ([3]; pH 2.7, log P): 3.17 | pest or weed control at 100 g/ha [4]: 100%

Structure (SMILES): Cc1cc(C#N)cc(C(=O)NC(C)C)c1NC(=O)c1cc(Nc2ccc(C(F)(F)F)cc2)nn1-c1ncccc1Cl [Example 74]
pest or weed control at 100 g/ha [1, 7]: 100% | chromatographic logP ([3]; pH 2.7, log P): 3.7 | pest or weed control at 100 g/ha [4]: 100%

Structure (SMILES): CNC(=O)c1cc(Cl)cc(C)c1NC(=O)c1cc(C#Cc2ccc(OC(F)(F)F)cc2)nn1-c1ncccc1Cl [Example 10]
pest or weed control at 100 g/ha [1, 7]: 100% | chromatographic logP ([3]; pH 2.7, log P): 4.29 | pest or weed control at 100 g/ha [4]: 100%

Structure (SMILES): Cc1cc(Cl)cc(C(=O)NC(C)C)c1NC(=O)c1cc(C#Cc2ccc(OC(F)(F)F)cc2)nn1-c1ncccc1Cl [Example 11]
pest or weed control at 100 g/ha [1, 7]: 100% | efficacy (kill of larvae) [2]: 90% | chromatographic logP ([3]; pH 2.7, log P): 4.79 | pest or weed control at 100 g/ha [4]: 100%

chromatographic logP ([3]; reversed-phase HPLC column (C18), pH 2.7, HPLC reversed-phase C18, acidic range pH 2.7, 0.1% aqueous formic acid/acetonitrile, table of compounds of formula (I), read-out: log P): 4.43
Structure (SMILES): CNC(=O)c1cc(Cl)cc(C)c1NC(=O)c1cc(N2CCN(c3cc(C(F)(F)F)cc(C(F)(F)F)c3)C2=O)nn1-c1ncccc1Cl [Example 22]
pest or weed control at 100 g/ha ([1]; application rate 100 g/ha, after 7 days, read-out: activity (caterpillars killed)): 100% | efficacy (no fertile eggs laid) [6]: 100% | efficacy (kill of larvae) [2]: 100% | pest or weed control at 100 g/ha [4]: 100%

Structure (SMILES): CNC(=O)c1cc(C#N)cc(C)c1NC(=O)c1cc(CN2CC(C(F)(F)F)C(c3ccc(Cl)cc3)=N2)nn1-c1ncccc1Cl (stereo not shown) [Example 68]
pest or weed control at 100 g/ha [1, 7]: 100% | chromatographic logP ([3]; pH 2.7, log P): 3.66 | pest or weed control at 100 g/ha [4]: 100%

Structure (SMILES): CNC(=O)c1cc(Cl)cc(C)c1NC(=O)c1cc(CN(C=O)c2ccc(Cl)cc2NS(C)(=O)=O)nn1-c1ncccc1Cl [Example 33]
activity (aphids killed) [5]: 90% | pest or weed control at 100 g/ha [1, 7]: 100% | chromatographic logP ([3]; pH 2.7, log P): 2.49

Structure (SMILES): Cc1cc(C#N)cc(C(=O)NC(C)(C)C)c1NC(=O)c1cc(C(=O)c2nc(C(F)(F)F)cs2)nn1-c1ncccc1Cl [Example 14]
pest or weed control at 100 g/ha [1, 7]: 100% | chromatographic logP ([3]; pH 2.7, log P): 3.57 | pest or weed control at 100 g/ha [4]: 100%

Structure (SMILES): CNC(=O)c1cc(Cl)cc(C)c1NC(=O)c1cc(CN(C=O)c2ccccc2NS(C)(=O)=O)nn1-c1ncccc1Cl [Example 32]
activity (aphids killed) [5]: 80% | chromatographic logP ([3]; pH 2.7, log P): 2.09

Structure (SMILES): CCOc1ccc(C(=O)c2cc(C(=O)Nc3c(C)cc(C#N)cc3C(=O)NC)n(-c3ncccc3Cl)n2)cn1 [Example 17]
pest or weed control at 100 g/ha [1, 7]: 100% | chromatographic logP ([3]; pH 2.7, log P): 2.99 | pest or weed control at 100 g/ha [4]: 100%

Structure (SMILES): Cc1cc(C#N)cc(C(=O)NC(C)C)c1NC(=O)c1cc(Nc2ccc(C(F)(F)F)cn2)nn1-c1ncccc1Cl [Example 67]
pest or weed control at 100 g/ha [1, 7]: 100% | chromatographic logP ([3]; pH 2.7, log P): 3.31 | pest or weed control at 100 g/ha [4]: 100%

Structure (SMILES): CNC(=O)c1cc(C#N)cc(C)c1NC(=O)c1cc(C(=O)c2nc(C(F)(F)F)cs2)nn1-c1ncccc1Cl [Example 20]
pest or weed control at 500 g/ha [1, 7]: 100% | chromatographic logP ([3]; pH 2.7, log P): 2.77 | pest or weed control at 500 g/ha [4]: 100%

Structure (SMILES): Cc1cc(C#N)cc(C(=O)NC(C)(C)C)c1NC(=O)c1cc(C(=O)c2ccc(C(F)(F)F)nc2)nn1-c1ncccc1Cl [Example 19]
pest or weed control at 500 g/ha [1, 7]: 100% | chromatographic logP ([3]; pH 2.7, log P): 3.85 | pest or weed control at 500 g/ha [4]: 100%

Structure (SMILES): CNC(=O)c1cc(C#N)cc(C)c1NC(=O)c1cc(C(O)Cn2nnc(C(F)(F)F)n2)nn1-c1ncccc1Cl (stereo not shown) [Example 63]
activity (aphids killed) [5]: 80% | pest or weed control at 100 g/ha [1, 7]: 100% | efficacy (no fertile eggs laid) [6]: 100% | log P ([3]; pH 2.7): 2.27 | chromatographic logP ([3]; pH 2.7, log P): 2.01

Structure (SMILES): CNC(=O)c1cc(C#N)cc(C)c1NC(=O)c1cc(C(=O)c2ccc(C(F)(F)F)nc2)nn1-c1ncccc1Cl [Example 18]
inhibition at 100 g/ha ([1]; 100 g/ha, 7 d, comparison with prior art): 100% | chromatographic logP ([3]; pH 2.7, log P): 3.01 | inhibition at 100 g/ha ([4]; read-out: % Activity, PHAECO): 100% | pest or weed control at 100 g/ha [4]: 100%
